The supplement of paper PMC6045584
± gives the standard deviation of the averaged measurements.

How the values were obtained:
2-METHOXYESTRADIOL = compound: COc1cc2c(cc1O)CC[C@@H]1[C@@H]2CC[C@]2(C)[C@@H](O)CC[C@@H]12 [2-METHOXYESTRADIOL]; test: surviving fraction relative to DMSO-only wells; higher = less growth inhibition; settings: exposure time: 5 days
Method in brief: (§1)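 Tumour cell lines were grown to log phase and seeded at 250–500 cells per well in 384-well plates. They were exposed continuously to inhibitors at 0.5, 1, 5, 10, 50, 100, 500 and 1000 nM for five days, beginning 24 hours after seeding. Surviving fraction is CellTiter-Glo luminescence normalised to the median of DMSO-only wells.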

RESVERATROL = compound: Oc1ccc(/C=C/c2cc(O)cc(O)c2)cc1 [RESVERATROL]; test: as above; settings: exposure time: 5 days
Method in brief: as §1

Test System | surviving fraction (2-METHOXYESTRADIOL; 0.5 nM) | surviving fraction (2-METHOXYESTRADIOL; 1 nM) | surviving fraction (2-METHOXYESTRADIOL; 5 nM) | surviving fraction (2-METHOXYESTRADIOL; 10 nM) | surviving fraction (2-METHOXYESTRADIOL; 50 nM) | surviving fraction (2-METHOXYESTRADIOL; 100 nM) | surviving fraction (2-METHOXYESTRADIOL; 500 nM) | surviving fraction (2-METHOXYESTRADIOL; 1000 nM) | surviving fraction (RESVERATROL; 0.5 nM) | surviving fraction (RESVERATROL; 1 nM) | surviving fraction (RESVERATROL; 5 nM) | surviving fraction (RESVERATROL; 10 nM) | surviving fraction (RESVERATROL; 50 nM) | surviving fraction (RESVERATROL; 100 nM) | surviving fraction (RESVERATROL; 500 nM) | surviving fraction (RESVERATROL; 1000 nM)
JURKAT HAEMATOPOIETIC AND LYMPHOID TISSUE | 1.08 ± 0.021 | 1.08 ± 0.014 | 1.03 ± 0.005 | 1.02 ± 0.033 | 1.02 ± 0.032 | 0.993 ± 0.016 | 0.043 ± 0.001 | 0.042 ± 0.001 | 1.022 ± 0.0052 | 1.04 ± 0.022 | 1.02 ± 0.011 | 1.04 ± 0.033 | 0.985 ± 0.018 | 0.953 ± 0.011 | 1.02 ± 0.029 | 1.04 ± 0.039
KPD BONE | 0.992 ± 0.043 | 0.964 ± 0.04 | 1.02 ± 0.066 | 1.03 ± 0.014 | 1.08 ± 0.031 | 1.07 ± 0.024 | 0.784 ± 0.047 | 0.551 ± 0.026 | 0.997 ± 0.054 | 1.03 ± 0.032 | 1.08 ± 0.04 | 1.09 ± 0.063 | 1.02 ± 0.017 | 1.08 ± 0.041 | 0.969 ± 0.044 | 1.05 ± 0.028
LM7 BONE | 0.969 ± 0.063 | 1.03 ± 0.016 | 1.06 ± 0.022 | 1.01 ± 0.056 | 1.12 ± 0.077 | 1.03 ± 0.13 | 0.5347 ± 0.0023 | 0.264 ± 0.024 | 1.05 ± 0.036 | 1.05 ± 0.025 | 1.1 ± 0.045 | 1.18 ± 0.061 | 1.07 ± 0.067 | 1.15 ± 0.054 | 1.04 ± 0.034 | 1.12 ± 0.048
LNCAP PROSTATE | 1.01 ± 0.039 | 0.922 ± 0.039 | 0.975 ± 0.094 | 0.901 ± 0.092 | 0.884 ± 0.13 | 0.809 ± 0.091 | 0.681 ± 0.033 | 0.208 ± 0.0072 | 0.912 ± 0.051 | 0.987 ± 0.098 | 0.897 ± 0.11 | 0.775 ± 0.12 | 1.04 ± 0.16 | 0.919 ± 0.11 | 0.914 ± 0.08 | 0.956 ± 0.18
MCF7 BREAST | 0.846 ± 0.015 | 0.837 ± 0.017 | 0.857 ± 0.0097 | 0.8506 ± 0.0053 | 0.903 ± 0.027 | 0.924 ± 0.083 | 0.943 ± 0.048 | 0.685 ± 0.086 | 0.91 ± 0.027 | 1.01 ± 0.074 | 0.927 ± 0.068 | 0.947 ± 0.03 | 0.951 ± 0.063 | 0.99 ± 0.016 | 1 ± 0.077 | 1.04 ± 0.031
MDAMB134 BREAST | 0.832 ± 0.24 | 0.884 ± 0.12 | 0.777 ± 0.041 | 0.916 ± 0.18 | 0.755 ± 0.097 | 0.717 ± 0.12 | 0.56 ± 0.0085 | 0.619 ± 0.15 | 0.894 ± 0.15 | 1.02 ± 0.045 | 0.864 ± 0.11 | 0.811 ± 0.016 | 1.06 ± 0.14 | 1.04 ± 0.15 | 1.057 ± 0.0028 | 1.08 ± 0.048
MDAMB157 BREAST | 0.873 ± 0.086 | 0.947 ± 0.022 | 0.935 ± 0.05 | 0.983 ± 0.12 | 0.959 ± 0.012 | 0.932 ± 0.013 | 0.76 ± 0.055 | 0.31 ± 0.066 | 1.01 ± 0.061 | 1.06 ± 0.048 | 0.972 ± 0.057 | 1.1 ± 0.038 | 0.992 ± 0.025 | 1.07 ± 0.03 | 0.972 ± 0.095 | 1 ± 0.1
MDAMB231 BREAST | 0.964 ± 0.0098 | 0.949 ± 0.011 | 0.9675 ± 0.0069 | 0.963 ± 0.018 | 0.983 ± 0.027 | 0.989 ± 0.027 | 0.545 ± 0.025 | 0.258 ± 0.012 | 0.97 ± 0.01 | 0.996 ± 0.013 | 0.9638 ± 0.0043 | 0.993 ± 0.016 | 0.9694 ± 0.0024 | 0.998 ± 0.012 | 0.993 ± 0.012 | 1.03 ± 0.053
MDAMB361 BREAST | 0.843 ± 0.082 | 0.827 ± 0.11 | 0.865 ± 0.046 | 0.829 ± 0.11 | 0.788 ± 0.043 | 0.8 ± 0.083 | 0.666 ± 0.014 | 0.701 ± 0.081 | 0.839 ± 0.071 | 0.871 ± 0.11 | 0.894 ± 0.089 | 0.898 ± 0.079 | 0.948 ± 0.012 | 0.884 ± 0.021 | 0.949 ± 0.082 | 0.952 ± 0.17
MDAMB436 BREAST | 0.944 ± 0.012 | 0.951 ± 0.19 | 1 ± 0.016 | 0.953 ± 0.065 | 0.956 ± 0.065 | 0.971 ± 0.045 | 0.779 ± 0.12 | 0.62 ± 0.079 | 0.943 ± 0.049 | 1.01 ± 0.17 | 0.998 ± 0.2 | 1.01 ± 0.11 | 1.08 ± 0.21 | 0.993 ± 0.11 | 1.06 ± 0.15 | 1.07 ± 0.056
MDAMB453 BREAST | 1.04 ± 0.059 | 0.995 ± 0.032 | 1.02 ± 0.079 | 1.02 ± 0.037 | 1.08 ± 0.037 | 1.05 ± 0.048 | 0.511 ± 0.072 | 0.257 ± 0.014 | 1.07 ± 0.059 | 1.06 ± 0.06 | 1.16 ± 0.022 | 1.11 ± 0.039 | 1.16 ± 0.05 | 1.12 ± 0.069 | 1.04 ± 0.058 | 1.09 ± 0.019
MDAMB468 BREAST | 0.994 ± 0.12 | 1.08 ± 0.056 | 1.03 ± 0.053 | 1.13 ± 0.072 | 1.09 ± 0.055 | 1.15 ± 0.065 | 1.01 ± 0.081 | 0.99 ± 0.064 | 1.05 ± 0.11 | 1.13 ± 0.08 | 1.06 ± 0.059 | 1.07 ± 0.05 | 1.02 ± 0.047 | 1.14 ± 0.037 | 1.07 ± 0.053 | 1.09 ± 0.06
MFM223 BREAST | 1.11 ± 0.1 | 1.11 ± 0.062 | 1.1 ± 0.093 | 1.17 ± 0.35 | 1.06 ± 0.034 | 0.973 ± 0.026 | 0.384 ± 0.057 | 0.16 ± 0.032 | 1.06 ± 0.062 | 1.45 ± 0.56 | 1.15 ± 0.042 | 1.46 ± 0.46 | 1.08 ± 0.086 | 1.08 ± 0.18 | 1.19 ± 0.046 | 1.08 ± 0.11
MG63 BONE | 0.991 ± 0.015 | 1.008 ± 0.0075 | 1.02 ± 0.014 | 1.01 ± 0.018 | 1.04 ± 0.029 | 1.05 ± 0.021 | 0.971 ± 0.034 | 0.861 ± 0.03 | 1.01 ± 0.038 | 1.06 ± 0.048 | 1.07 ± 0.035 | 1.15 ± 0.021 | 1.04 ± 0.024 | 1.11 ± 0.029 | 1.03 ± 0.023 | 1.05 ± 0.031
MHM BONE | 1.02 ± 0.035 | 1.01 ± 0.033 | 1.04 ± 0.049 | 1.03 ± 0.05 | 1.04 ± 0.029 | 1.03 ± 0.045 | 0.975 ± 0.015 | 0.673 ± 0.048 | 0.997 ± 0.013 | 1.02 ± 0.015 | 1.03 ± 0.012 | 1.03 ± 0.018 | 1.06 ± 0.032 | 1.06 ± 0.049 | 0.998 ± 0.025 | 1.045 ± 0.0076
NCIH441 LUNG | 1.1 ± 0.058 | 1.03 ± 0.073 | 1.08 ± 0.036 | 1.03 ± 0.065 | 1.03 ± 0.097 | 1.03 ± 0.084 | 0.922 ± 0.09 | 0.575 ± 0.093 | 1.14 ± 0.074 | 1.08 ± 0.12 | 1.1 ± 0.099 | 1.18 ± 0.09 | 1.09 ± 0.029 | 1.15 ± 0.087 | 1.1 ± 0.025 | 1.17 ± 0.026
NOS1 BONE | 1.19 ± 0.077 | 1.15 ± 0.063 | 1.27 ± 0.18 | 1.28 ± 0.14 | 1.13 ± 0.23 | 1.22 ± 0.097 | 0.981 ± 0.055 | 0.438 ± 0.036 | 1.08 ± 0.18 | 0.975 ± 0.046 | 1.07 ± 0.028 | 1.137 ± 0.0086 | 1.21 ± 0.22 | 1.35 ± 0.13 | 1.16 ± 0.032 | 1.17 ± 0.053
NY BONE | 0.95 ± 0.026 | 0.952 ± 0.014 | 0.983 ± 0.021 | 0.994 ± 0.017 | 1.03 ± 0.018 | 1 ± 0.031 | 0.106 ± 0.0015 | 0.057 ± 0.0036 | 0.936 ± 0.024 | 0.976 ± 0.03 | 1.06 ± 0.022 | 1.06 ± 0.048 | 1.01 ± 0.035 | 1.05 ± 0.047 | 0.951 ± 0.0076 | 1.01 ± 0.054
OS25HAL BONE | 0.828 ± 0.2 | 0.94 ± 0.029 | 0.961 ± 0.021 | 0.945 ± 0.042 | 1 ± 0.086 | 1.05 ± 0.072 | 0.501 ± 0.092 | 0.169 ± 0.014 | 1.01 ± 0.026 | 1.11 ± 0.059 | 1.03 ± 0.032 | 0.996 ± 0.024 | 1.001 ± 0.0068 | 1.08 ± 0.04 | 1.03 ± 0.018 | 1.16 ± 0.027
OSHN BONE | 1.03 ± 0.012 | 1.046 ± 0.0025 | 1.05 ± 0.026 | 1.031 ± 0.0067 | 1.054 ± 0.0092 | 1.068 ± 0.007 | 1.04 ± 0.033 | 0.044 ± 0.0036 | 1.02 ± 0.022 | 1.106 ± 0.0076 | 1.07 ± 0.017 | 1.099 ± 0.004 | 1.06 ± 0.026 | 1.13 ± 0.03 | 1.09 ± 0.02 | 1.11 ± 0.024
